What was measured:
[1] = target: T1, human SST-R1 (Homo sapiens, UniProt P30872); experiment: Inhibition of 125I-Tyr11-SRIF binding to cloned human SST-R1 membranes; details: human cloned receptor; read-out: Concentration (nM) of SST analogs to inhibit SRIF binding by 50%, SST-R 1
T1 construct: expressed in transfected cells; host or cells: CHO cells
Method: (§1) The SST analogs were tested for their potency in inhibition of the binding of ^125I-Tyr^11-SRIF (based on the method described by Raynor et. al., Molecular Pharmacology 43: 838, 1993) to membrane preparations expressing the transmembranal SST receptors (SST-R1, 2, 3, 4 or 5). The receptor preparations used for these tests were either from the cloned human receptors selectively and stably expressed in Chinese Hamster Ovary (CHO) cells or from cell lines naturally expressing the SST-Rs. […] The binding reactions were filtered, the filters were washed and the bound radioactivity was counted in β counter after addition of scintillation solution.

[2] = target: T2, human cloned SST-R2 (Homo sapiens, UniProt P30874); experiment: Inhibition of 125I-Tyr11-SRIF binding to cloned human SST-R2 membranes (CHO cells); details: human cloned receptor; read-out: Concentration (nM) of SST analogs to inhibit SRIF binding by 50%, SST-R 2
T2 construct: expressed in transfected cells; host or cells: CHO cells
Method: as §1

[3] = target: T3, human SST-R3 (Homo sapiens, UniProt P32745); experiment: Inhibition of 125I-Tyr11-SRIF binding to cloned human SST-R3 membranes; details: human cloned receptor; read-out: Concentration (nM) of SST analogs to inhibit SRIF binding by 50%, SST-R 3
T3 construct: expressed in transfected cells; host or cells: CHO cells
Method: as §1

[4] = target: T4, human SST-R4 (Homo sapiens, UniProt P31391); experiment: Inhibition of 125I-Tyr11-SRIF binding to cloned human SST-R4 membranes; details: human cloned receptor; read-out: Concentration (nM) of SST analogs to inhibit SRIF binding by 50%, SST-R 4
T4 construct: expressed in transfected cells; host or cells: CHO cells
Method: as §1

[5] = target: T5, human SST-R5 (Homo sapiens, UniProt P35346); experiment: Inhibition of 125I-Tyr11-SRIF binding to cloned human SST-R5 membranes; details: human cloned receptor; read-out: Concentration (nM) of SST analogs to inhibit SRIF binding by 50%, SST-R 5
T5 construct: expressed in transfected cells; host or cells: CHO cells
Method: as §1

T4 sequence (P31391 whole entry): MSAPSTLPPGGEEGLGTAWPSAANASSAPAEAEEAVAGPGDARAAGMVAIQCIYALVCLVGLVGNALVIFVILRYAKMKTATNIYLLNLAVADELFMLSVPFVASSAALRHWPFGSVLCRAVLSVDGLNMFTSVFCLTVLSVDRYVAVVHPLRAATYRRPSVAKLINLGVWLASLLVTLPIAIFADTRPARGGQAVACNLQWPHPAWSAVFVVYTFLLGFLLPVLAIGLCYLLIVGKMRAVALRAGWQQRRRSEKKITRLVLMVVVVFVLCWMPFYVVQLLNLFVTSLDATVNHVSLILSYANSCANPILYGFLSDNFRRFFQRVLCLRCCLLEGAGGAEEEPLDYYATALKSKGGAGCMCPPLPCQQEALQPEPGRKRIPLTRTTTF
T5 sequence (P35346 whole entry): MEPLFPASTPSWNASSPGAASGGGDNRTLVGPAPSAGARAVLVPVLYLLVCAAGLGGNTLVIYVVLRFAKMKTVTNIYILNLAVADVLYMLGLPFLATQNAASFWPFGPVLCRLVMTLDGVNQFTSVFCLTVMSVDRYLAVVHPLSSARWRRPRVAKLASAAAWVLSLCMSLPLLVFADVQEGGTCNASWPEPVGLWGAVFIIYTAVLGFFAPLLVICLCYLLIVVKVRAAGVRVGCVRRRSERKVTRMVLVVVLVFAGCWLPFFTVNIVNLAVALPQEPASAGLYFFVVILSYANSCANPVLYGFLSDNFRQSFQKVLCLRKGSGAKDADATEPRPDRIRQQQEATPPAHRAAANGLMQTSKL
T3 sequence (P32745 whole entry): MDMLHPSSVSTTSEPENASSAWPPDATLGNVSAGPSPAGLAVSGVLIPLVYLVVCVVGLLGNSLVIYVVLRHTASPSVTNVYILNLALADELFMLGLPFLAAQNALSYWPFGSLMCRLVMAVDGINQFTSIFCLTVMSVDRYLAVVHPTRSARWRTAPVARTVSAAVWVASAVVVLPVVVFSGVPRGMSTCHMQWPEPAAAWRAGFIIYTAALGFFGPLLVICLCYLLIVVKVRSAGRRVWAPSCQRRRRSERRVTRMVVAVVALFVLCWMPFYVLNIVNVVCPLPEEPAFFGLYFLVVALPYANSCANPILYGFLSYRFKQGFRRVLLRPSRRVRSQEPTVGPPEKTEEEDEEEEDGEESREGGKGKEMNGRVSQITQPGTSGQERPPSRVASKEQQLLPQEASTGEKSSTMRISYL
T1 sequence (P30872 whole entry): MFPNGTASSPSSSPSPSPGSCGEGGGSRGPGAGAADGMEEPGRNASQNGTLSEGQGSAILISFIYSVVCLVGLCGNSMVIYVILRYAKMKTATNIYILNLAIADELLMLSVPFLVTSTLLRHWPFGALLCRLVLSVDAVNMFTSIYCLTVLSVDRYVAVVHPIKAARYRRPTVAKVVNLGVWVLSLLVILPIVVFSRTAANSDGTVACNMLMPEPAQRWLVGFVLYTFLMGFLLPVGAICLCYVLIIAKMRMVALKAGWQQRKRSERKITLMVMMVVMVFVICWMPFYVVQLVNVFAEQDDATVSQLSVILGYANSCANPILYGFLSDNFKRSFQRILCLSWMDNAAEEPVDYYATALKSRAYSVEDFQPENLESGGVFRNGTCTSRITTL
T2 sequence (P30874 whole entry): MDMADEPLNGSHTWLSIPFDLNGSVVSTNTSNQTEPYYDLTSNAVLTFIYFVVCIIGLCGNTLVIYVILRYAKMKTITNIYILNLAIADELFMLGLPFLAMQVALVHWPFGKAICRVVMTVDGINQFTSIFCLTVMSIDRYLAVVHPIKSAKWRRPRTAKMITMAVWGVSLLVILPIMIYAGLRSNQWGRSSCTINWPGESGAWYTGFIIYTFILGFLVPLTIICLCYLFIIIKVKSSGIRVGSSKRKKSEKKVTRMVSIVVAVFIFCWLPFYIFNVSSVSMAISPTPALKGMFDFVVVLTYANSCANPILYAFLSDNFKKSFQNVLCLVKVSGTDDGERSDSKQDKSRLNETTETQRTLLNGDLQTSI

IC50 [1]: 349 nM
IC50 [2]: 1.5 nM
IC50 [3]: 323 nM
IC50 [4]: 123 nM
IC50 [5]: 186 nM
Compound: C[C@@H](O)[C@@H]1NC(=O)[C@H](CCCCN)NC(=O)[C@@H](Cc2c[nH]c3ccccc23)NC(=O)[C@H](Cc2ccccc2)NC(=O)[C@@H]2CSSC[C@H](NC1=O)C(=O)N([C@@H](Cc1ccccc1)C(N)=O)CCCNC(=O)CCCN[C@@H](Cc1ccccc1)C(=O)N2 [PTR 3205, PheC3-Cys-Phe-(D)Trp-Lys-Thr-Cys-PheN3-NH2]
